In patent US10166218B2, “3-(1H-indol-2-yl)-1H-pyrazolo[3,4-C]pyridines and therapeutic uses thereof” (Samumed, LLC, priority 2015, dated 2019):

System: primary human fibroblasts derived from IPF patients (LL29 cells) treated with TGF-β1; α-smooth muscle actin (αSMA)
Test: Inhibition of the fibrotic process: αSMA staining in TGF-β1 treated primary human fibroblasts from IPF patients (LL29 cells)
Format: cell-based
Conditions: Fibroblast, 96 h, TGF-β1 20 ng/mL, 4 days, % cells positive for αSMA
In short: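 Potency reflects suppression of TGF-β1-driven αSMA expression in IPF patient fibroblasts over 4 days. Values are EC50s from normalized αSMA-positive cell counts, with % inhibition at 10 μM when EC50 exceeded 10 μM.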

| SMILES | EC50 |
| --- | --- |
| Cc1ccncc1-c1cc2c(-c3cc4c(-c5cccc(F)c5)cccc4[nH]3)n[nH]c2cn1 [Compound 5, 3-(4-(3-Fluorophenyl)-1H-indol-2-yl)-5-(4-methylpyridin-3-yl)-1H-pyrazolo [3,4-c]pyridine] | 605 nM |
| O=C(Nc1cncc(-c2cc3c(-c4cc5c(-c6cccc(F)c6)cccc5[nH]4)n[nH]c3cn2)c1)c1ccccc1 [Compound 11, N-(5-(3-(4-(3-Fluorophenyl)-1H-indol-2-yl)-1H-pyrazolo[3,4-c]pyridin-5-yl)pyridin-3-yl)benzamide] | 873 nM |
| O=C(Nc1cncc(-c2cc3c(-c4cc5c(-c6cccc(F)c6)cccc5[nH]4)n[nH]c3cn2)c1)C1CCC1 [Compound 21, N-(5-(3-(4-(3-Fluorophenyl)-1H-indol-2-yl)-1H-pyrazolo[3,4-c]pyridin-5-yl)pyridin-3-yl)cyclobutanecarboxamide] | 1700 nM |
| CC(C)CC(=O)Nc1cncc(-c2cc3c(-c4cc5c(-c6ccc(F)cc6)cccc5[nH]4)n[nH]c3cn2)c1 [Compound 30, N-(5-(3-(4-(4-Fluorophenyl)-1H-indol-2-yl)-1H-pyrazolo[3,4-c]pyridin-5-yl)pyridin-3-yl)-3-methylbutanamide] | 2280 nM |
| O=C(Cc1ccccc1)Nc1cncc(-c2cc3c(-c4cc5c(-c6ccc(F)cc6)cccc5[nH]4)n[nH]c3cn2)c1 [Compound 38, N-(5-(3-(4-(4-Fluorophenyl)-1H-indol-2-yl)-1H-pyrazolo[3,4-c]pyridin-5-yl)pyridin-3-yl)-2-phenylacetamide] | 659 nM |
| O=C(Nc1cncc(-c2cc3c(-c4cc5c(-c6ccc(F)cc6)cccc5[nH]4)n[nH]c3cn2)c1)C1CCCCC1 [Compound 51, N-(5-(3-(4-(4-Fluorophenyl)-1H-indol-2-yl)-1H-pyrazolo[3,4-c]pyridin-5-yl)pyridin-3-yl)cyclohexanecarboxamide] | 809 nM |
| Fc1ccc(-c2cccc3[nH]c(-c4n[nH]c5cnc(-c6cncnc6)cc45)cc23)cc1 [Compound 55, 3-(4-(4-Fluorophenyl)-1H-indol-2-yl)-5-(pyrimidin-5-yl)-1H-pyrazolo[3,4-c]pyridine] | 2660 nM |
| CC(C)C(=O)Nc1cncc(-c2cc3c(-c4cc5c(-c6ccccc6F)cccc5[nH]4)n[nH]c3cn2)c1 [Compound 65, N-(5-(3-(4-(2-Fluorophenyl)-1H-indol-2-yl)-1H-pyrazolo[3,4-c]pyridin-5-yl)pyridin-3-yl)isobutyramide] | 1110 nM |
| CCCCC(=O)Nc1cncc(-c2cc3c(-c4cc5c(-c6ccccc6F)cccc5[nH]4)n[nH]c3cn2)c1 [Compound 75, N-(5-(3-(4-(2-Fluorophenyl)-1H-indol-2-yl)-1H-pyrazolo[3,4-c]pyridin-5-yl)pyridin-3-yl)pentanamide] | 2030 nM |
| O=C(Nc1cncc(-c2cc3c(-c4cc5c(-c6ccccc6F)cccc5[nH]4)n[nH]c3cn2)c1)C1CC1 [Compound 76, N-(5-(3-(4-(2-Fluorophenyl)-1H-indol-2-yl)-1H-pyrazolo[3,4-c]pyridin-5-yl)pyridin-3-yl)cyclopropanecarboxamide] | 307 nM |
| Cc1ccncc1-c1cc2c(-c3cc4c(-c5ccncc5)cccc4[nH]3)n[nH]c2cn1 [Compound 117, 5-(4-Methylpyridin-3-yl)-3-(4-(pyridin-4-yl)-1H-indol-2-yl)-1H-pyrazolo [3,4-c]pyridine] | 1040 nM |
| CC(C)(C)C(=O)Nc1cncc(-c2cc3c(-c4cc5c(-c6ccncc6)cccc5[nH]4)n[nH]c3cn2)c1 [Compound 120, N-(5-(3-(4-(Pyridin-4-yl)-1H-indol-2-yl)-1H-pyrazolo[3,4-c]pyridin-5-yl)pyridin-3-yl)pivalamide] | 1030 nM |
| CC(C)(C)CC(=O)Nc1cncc(-c2cc3c(-c4cc5c(-c6ccncc6)cccc5[nH]4)n[nH]c3cn2)c1 [Compound 128, 3,3-Dimethyl-N-(5-(3-(4-(pyridin-4-yl)-1H-indol-2-yl)-1H-pyrazolo[3,4-c]pyridin-5-yl)pyridin-3-yl)butanamide] | > 10000 nM |
| O=C(Nc1cncc(-c2cc3c(-c4cc5c(-c6ccncc6)cccc5[nH]4)n[nH]c3cn2)c1)C1CCC1 [Compound 133, N-(5-(3-(4-(Pyridin-4-yl)-1H-indol-2-yl)-1H-pyrazolo[3,4-c]pyridin-5-yl)pyridin-3-yl)cyclobutanecarboxamide] | 391 nM |
| c1cc(-c2ccncc2)c2cc(-c3n[nH]c4cnc(-c5cncnc5)cc34)[nH]c2c1 [Compound 139, 3-(4-(Pyridin-4-yl)-1H-indol-2-yl)-5-(pyrimidin-5-yl)-1H-pyrazolo[3,4-c]pyridine] | 238 nM |
| O=C(Nc1cncc(-c2cc3c(-c4cc5c(N6CCCCC6)cccc5[nH]4)n[nH]c3cn2)c1)C1CC1 [Compound 188, N-(5-(3-(4-(Piperidin-1-yl)-1H-indol-2-yl)-1H-pyrazolo[3,4-c]pyridin-5-yl)pyridin-3-yl)cyclopropanecarboxamide] | 1370 nM |
| FC1(F)CCN(Cc2cncc(-c3cc4c(-c5cc6c(N7CCCCC7)cccc6[nH]5)n[nH]c4cn3)c2)C1 [Compound 194, 5-(5-((3,3-Difluoropyrrolidin-1-yl)methyl)pyridin-3-yl)-3-(4-(piperidin-1-yl)-1H-indol-2-yl)-1H-pyrazolo[3,4-c]pyridine] | 694 nM |
| CN1CCN(c2cccc3[nH]c(-c4n[nH]c5cnc(-c6cncc(NC(=O)C7CCC7)c6)cc45)cc23)CC1 [Compound 245] | 4610 nM |
| CC(C)(C)CC(=O)Nc1cncc(-c2cc3c(-c4cc5ccccc5[nH]4)n[nH]c3cn2)c1 [Compound 268, N-(5-(3-(1H-Indol-2-yl)-1H-pyrazolo[3,4-c]pyridin-5-yl)pyridin-3-yl)-3,3-dimethylbutanamide] | 9980 nM |
| O=C(Nc1cncc(-c2cc3c(-c4cc5ccccc5[nH]4)n[nH]c3cn2)c1)C1CCCCC1 [Compound 275, N-(5-(3-(1H-Indol-2-yl)-1H-pyrazolo[3,4-c]pyridin-5-yl)pyridin-3-yl) cyclohexanecarboxamide] | 3270 nM |
| CS(=O)(=O)NCc1cc(F)cc(-c2cccc3[nH]c(-c4n[nH]c5cnc(-c6cncc(NC(=O)c7ccccc7)c6)cc45)cc23)c1 [Compound 487, N-(5-(3-(4-(3-Fluoro-5-(methylsulfonamidomethyl)phenyl)-1H-indol-2-yl)-1H-pyrazolo[3,4-c]pyridin-5-yl)pyridin-3-yl)benzamide] | 5010 nM |
| Nc1cncc(-c2cc3c(-c4cc5ncccc5[nH]4)n[nH]c3cn2)c1 [Compound 507, 5-(3-(1H-Pyrrolo[3,2-b]pyridin-2-yl)-1H-pyrazolo[3,4-c]pyridin-5-yl) pyridin-3-amine] | > 10000 nM |
| c1cnc2cc(-c3n[nH]c4cnc(-c5cncc(CNCC6CCCC6)c5)cc34)[nH]c2c1 [Compound 529, 1-(5-(3-(1H-Pyrrolo[3,2-b]pyridin-2-yl)-1H-pyrazolo[3,4-c]pyridin-5-yl)pyridin-3-yl)-N-(cyclopentylmethyl)methanamine] | > 10000 nM |
| Fc1ccccc1-c1cccc2[nH]c(-c3n[nH]c4cnc(-c5cn[nH]c5)cc34)cc12 [Compound 567, 3-(4-(2-Fluorophenyl)-1H-indol-2-yl)-5-(1H-pyrazol-4-yl)-1H-pyrazolo[3,4-c]pyridine] | 27 nM |
| c1cc(N2CCCCC2)c2cc(-c3n[nH]c4cnc(-c5cncc(OC6CCCCC6)c5)cc34)[nH]c2c1 [Compound 635, 5-(5-(Cyclohexyloxy)pyridin-3-yl)-3-(4-(piperidin-1-yl)-1H-indol-2-yl)-1H-pyrazolo[3,4-c]pyridine] | 1320 nM |
| c1cc(-c2ccoc2)c2cc(-c3n[nH]c4cnc(-c5cn[nH]c5)cc34)[nH]c2c1 [Compound 711, 3-(4-(Furan-3-yl)-1H-indol-2-yl)-5-(1H-pyrazol-4-yl)-1H-pyrazolo[3,4-c]pyridine] | 125 nM |
| c1csc(-c2cccc3[nH]c(-c4n[nH]c5cnc(C6CCNCC6)cc45)cc23)c1 [Compound 725, 5-(Piperidin-4-yl)-3-(4-(thiophen-2-yl)-1H-indol-2-yl)-1H-pyrazolo[3,4-c]pyridine] | > 10000 nM |
| Cn1cc(-c2cc3c(-c4cc5ncccc5[nH]4)n[nH]c3cn2)cn1 [Compound 1022, 5-(1-Methyl-1H-pyrazol-4-yl)-3-(1H-pyrrolo[3,2-b]pyridin-2-yl)-1H-pyrazolo[3,4-c]pyridine] | > 10000 nM |
| CN(C)CCOc1cncc(-c2cc3c(-c4cc5ncccc5[nH]4)n[nH]c3cn2)c1 [Compound 1029, 2-((5-(3-(1H-Pyrrolo[3,2-b]pyridin-2-yl)-1H-pyrazolo[3,4-c]pyridin-5-yl)pyridin-3-yl)oxy)-N,N-dimethylethan-1-amine] | 1720 nM |

Same assay, conditions: Fibroblast, 96 h, TGF-β1 20 ng/mL, 4 days, αSMA, 10 μM, read-out: percent inhibition at 10 μM (given for EC50 of >10 μM)

| SMILES | inhibition at 10 µM |
| --- | --- |
| CC(C)(C)CC(=O)Nc1cncc(-c2cc3c(-c4cc5c(-c6ccncc6)cccc5[nH]4)n[nH]c3cn2)c1 [Compound 128, 3,3-Dimethyl-N-(5-(3-(4-(pyridin-4-yl)-1H-indol-2-yl)-1H-pyrazolo[3,4-c]pyridin-5-yl)pyridin-3-yl)butanamide] | 23.7% |
| Nc1cncc(-c2cc3c(-c4cc5ncccc5[nH]4)n[nH]c3cn2)c1 [Compound 507, 5-(3-(1H-Pyrrolo[3,2-b]pyridin-2-yl)-1H-pyrazolo[3,4-c]pyridin-5-yl) pyridin-3-amine] | 0% |
| c1cnc2cc(-c3n[nH]c4cnc(-c5cncc(CNCC6CCCC6)c5)cc34)[nH]c2c1 [Compound 529, 1-(5-(3-(1H-Pyrrolo[3,2-b]pyridin-2-yl)-1H-pyrazolo[3,4-c]pyridin-5-yl)pyridin-3-yl)-N-(cyclopentylmethyl)methanamine] | 0% |
| c1csc(-c2cccc3[nH]c(-c4n[nH]c5cnc(C6CCNCC6)cc45)cc23)c1 [Compound 725, 5-(Piperidin-4-yl)-3-(4-(thiophen-2-yl)-1H-indol-2-yl)-1H-pyrazolo[3,4-c]pyridine] | 4.5% |
| Cn1cc(-c2cc3c(-c4cc5ncccc5[nH]4)n[nH]c3cn2)cn1 [Compound 1022, 5-(1-Methyl-1H-pyrazol-4-yl)-3-(1H-pyrrolo[3,2-b]pyridin-2-yl)-1H-pyrazolo[3,4-c]pyridine] | 44.5% |
